Laboratory results published in BindingDB's records for doi:10.1016/j.ejmech.2021.113795 (Hong Kong Polytechnic University, 2021).

Key:
[1] = biological target: ATP-dependent translocase ABCB1 (Homo sapiens, UniProt P08183); assay: Inhibition of P-glycoprotein in human LCC6MDR cells assessed as reversal fold by measuring reduction in paclitaxel by measuring paclitaxel IC50 at 1 uM after 5 days by Cell Titer-Glo luminescence assay
[2] = Inhibition of MRP1 in human 2008/MRP1 cells assessed as reversal of doxorubicin resistance by measuring doxorubicin IC50 at 1 uM after 5 days by Cell Titer-Glo luminescence assay

Chain of ATP-dependent translocase ABCB1 (P08183 whole entry): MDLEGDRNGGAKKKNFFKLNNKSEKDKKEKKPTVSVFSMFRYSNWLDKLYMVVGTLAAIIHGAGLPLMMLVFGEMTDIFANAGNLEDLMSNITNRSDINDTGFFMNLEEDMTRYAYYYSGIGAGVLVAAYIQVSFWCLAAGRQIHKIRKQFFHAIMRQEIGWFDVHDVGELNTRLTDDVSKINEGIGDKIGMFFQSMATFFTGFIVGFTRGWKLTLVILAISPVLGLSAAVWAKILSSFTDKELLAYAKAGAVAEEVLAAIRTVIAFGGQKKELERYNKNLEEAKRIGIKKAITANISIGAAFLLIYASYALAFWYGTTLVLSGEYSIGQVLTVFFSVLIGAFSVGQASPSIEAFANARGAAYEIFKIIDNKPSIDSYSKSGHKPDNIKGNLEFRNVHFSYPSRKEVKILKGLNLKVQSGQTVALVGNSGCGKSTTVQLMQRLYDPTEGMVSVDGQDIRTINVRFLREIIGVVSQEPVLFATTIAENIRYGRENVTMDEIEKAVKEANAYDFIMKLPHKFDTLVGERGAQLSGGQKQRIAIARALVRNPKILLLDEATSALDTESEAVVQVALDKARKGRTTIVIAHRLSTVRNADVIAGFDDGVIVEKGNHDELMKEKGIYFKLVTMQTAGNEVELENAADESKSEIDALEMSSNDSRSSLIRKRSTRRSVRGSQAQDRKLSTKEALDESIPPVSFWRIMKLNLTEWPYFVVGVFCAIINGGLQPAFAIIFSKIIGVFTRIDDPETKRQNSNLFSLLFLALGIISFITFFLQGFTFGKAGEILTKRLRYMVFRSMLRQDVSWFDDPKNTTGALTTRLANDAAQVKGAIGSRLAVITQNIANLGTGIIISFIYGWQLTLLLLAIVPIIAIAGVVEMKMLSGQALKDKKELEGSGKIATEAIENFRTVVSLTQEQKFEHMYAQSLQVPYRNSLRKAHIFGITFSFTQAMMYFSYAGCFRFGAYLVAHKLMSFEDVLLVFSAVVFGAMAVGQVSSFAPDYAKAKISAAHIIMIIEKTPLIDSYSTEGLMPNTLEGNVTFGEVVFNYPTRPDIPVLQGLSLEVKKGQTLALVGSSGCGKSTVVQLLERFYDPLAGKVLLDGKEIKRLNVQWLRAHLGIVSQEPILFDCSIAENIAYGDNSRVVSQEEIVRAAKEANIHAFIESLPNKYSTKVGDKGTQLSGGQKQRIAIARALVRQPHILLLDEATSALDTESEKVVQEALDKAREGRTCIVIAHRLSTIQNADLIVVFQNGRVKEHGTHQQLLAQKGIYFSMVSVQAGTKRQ

IC50 [1]	IC50 [2]	Compound
2.2 nM	341 nM	COc1cc(OC)c2c(c1)O[C@H](c1ccc(OC)c(OC)c1)[C@H](OC(=O)c1ccc(F)c(NC(=O)c3cc(OC)c(OC)c(OC)c3)c1)C2
1.8 nM	354 nM	COc1cc(OC)c2c(c1)O[C@H](c1ccc(OC)c(OC)c1)[C@@H](OC(=O)c1ccc(F)c(NC(=O)c3cc(OC)c(OC)c(OC)c3)c1)C2
